# Tests used:
# insulin receptor = insulin receptor (Homo sapiens, UniProt P06213); conditions: cited from earlier work
# PDGF receptor = conditions: cited from earlier work
# EGF receptor = EGF receptor (Homo sapiens, UniProt P00533); conditions: cited from earlier work
# ERK1 and ERK2 = conditions: read-out: IC50, aFGF-induced tyrosine phosphorylation of ERK1 and ERK2; cited from earlier work
# [1] = molecular target: fibroblast growth factor receptor 1 (FGFR1) (Homo sapiens, UniProt P11362); conditions: read-out: IC50, tyrosine kinase activity of FGFR1; in the presence of 1 mM ATP; cited from earlier work
# Sequence of fibroblast growth factor receptor 1 (FGFR1) (P11362 22-822, species assumed): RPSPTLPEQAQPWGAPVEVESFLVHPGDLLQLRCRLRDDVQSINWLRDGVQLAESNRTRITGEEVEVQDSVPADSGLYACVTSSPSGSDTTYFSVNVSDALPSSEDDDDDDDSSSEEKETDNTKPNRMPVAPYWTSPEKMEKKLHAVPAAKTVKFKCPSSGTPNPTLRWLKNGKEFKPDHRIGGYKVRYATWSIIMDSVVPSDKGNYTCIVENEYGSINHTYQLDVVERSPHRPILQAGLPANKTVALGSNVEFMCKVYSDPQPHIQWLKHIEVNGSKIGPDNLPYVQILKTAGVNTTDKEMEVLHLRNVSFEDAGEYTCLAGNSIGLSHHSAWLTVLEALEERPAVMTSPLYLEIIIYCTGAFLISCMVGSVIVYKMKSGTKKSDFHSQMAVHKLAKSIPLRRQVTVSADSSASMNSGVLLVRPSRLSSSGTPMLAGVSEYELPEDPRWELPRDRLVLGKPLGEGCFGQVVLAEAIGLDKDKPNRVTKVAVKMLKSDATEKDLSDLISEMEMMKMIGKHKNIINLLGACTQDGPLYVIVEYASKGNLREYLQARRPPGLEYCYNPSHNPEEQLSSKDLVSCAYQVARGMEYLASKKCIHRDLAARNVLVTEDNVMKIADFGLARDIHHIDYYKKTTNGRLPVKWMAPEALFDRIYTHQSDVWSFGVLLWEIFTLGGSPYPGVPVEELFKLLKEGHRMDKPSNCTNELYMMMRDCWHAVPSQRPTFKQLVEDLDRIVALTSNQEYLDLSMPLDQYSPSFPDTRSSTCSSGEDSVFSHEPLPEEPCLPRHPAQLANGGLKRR
# CD15+ cells = experiment: Differentiation of CD15+ sorted cells treated with VEGF or PDGF; assay type: cell-based, primate; conditions: 10 or 50 ng/ml
# Protocol: FIGS. 11A, 11B and 11C: CD15+ cells express cardiac, endothelial and vascular proteins markers; CD15+ sorted cells were cultured for 5 days on MEF and immunostained with the indicated markers; some cells were treated with VEGF or PDGF and immunostained with anti smooth muscle actin and myosin or CD31. Some others were cultured with human fibroblast isolated from the myocardium and stained with an anti-actinin antibody.
# When cultured on human cardiac fibroblasts, CD15+ cells differentiate into actinin-positive cardiomyocytes.
# Protocol for HUES-1 cells: HES cells were treated for 48 hrs with 10 ng/ml BMP2 in the presence or absence of 1 μM SU5402, a FGF receptor inhibitor, in low KO™SR (5%) containing KO™-DMEM.
# Gene induction was tested using real time Q-PCR.
# Sequence of EGF receptor (P00533 25-1210): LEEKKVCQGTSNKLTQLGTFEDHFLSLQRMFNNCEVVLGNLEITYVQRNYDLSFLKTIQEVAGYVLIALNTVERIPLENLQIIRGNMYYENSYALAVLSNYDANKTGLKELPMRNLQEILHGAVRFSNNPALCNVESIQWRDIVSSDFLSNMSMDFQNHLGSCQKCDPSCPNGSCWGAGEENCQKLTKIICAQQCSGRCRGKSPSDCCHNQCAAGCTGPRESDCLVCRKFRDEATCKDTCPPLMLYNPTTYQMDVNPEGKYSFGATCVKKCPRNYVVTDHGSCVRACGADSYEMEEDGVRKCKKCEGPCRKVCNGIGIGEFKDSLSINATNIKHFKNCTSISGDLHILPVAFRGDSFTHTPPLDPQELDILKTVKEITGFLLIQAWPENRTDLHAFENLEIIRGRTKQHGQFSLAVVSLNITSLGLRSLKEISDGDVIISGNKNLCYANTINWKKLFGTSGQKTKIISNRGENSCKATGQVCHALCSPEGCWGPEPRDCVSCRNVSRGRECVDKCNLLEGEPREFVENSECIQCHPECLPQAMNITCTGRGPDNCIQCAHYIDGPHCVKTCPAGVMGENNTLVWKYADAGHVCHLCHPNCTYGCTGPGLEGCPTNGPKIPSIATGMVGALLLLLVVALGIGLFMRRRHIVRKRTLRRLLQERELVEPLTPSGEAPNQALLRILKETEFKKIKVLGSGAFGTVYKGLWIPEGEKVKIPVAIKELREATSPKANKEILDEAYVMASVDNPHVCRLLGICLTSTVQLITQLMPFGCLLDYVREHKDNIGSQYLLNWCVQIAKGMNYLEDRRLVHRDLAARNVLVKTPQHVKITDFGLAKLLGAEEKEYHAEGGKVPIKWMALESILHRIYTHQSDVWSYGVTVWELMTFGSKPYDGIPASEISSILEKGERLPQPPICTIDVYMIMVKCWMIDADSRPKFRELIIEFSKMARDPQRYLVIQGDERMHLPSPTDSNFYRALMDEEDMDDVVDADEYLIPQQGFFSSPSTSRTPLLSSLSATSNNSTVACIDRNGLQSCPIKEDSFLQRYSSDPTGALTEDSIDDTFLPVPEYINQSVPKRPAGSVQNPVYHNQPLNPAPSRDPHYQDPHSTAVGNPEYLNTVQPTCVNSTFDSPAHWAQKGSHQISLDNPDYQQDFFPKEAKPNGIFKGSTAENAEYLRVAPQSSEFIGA
# Sequence of insulin receptor (P06213 28-1382, species assumed): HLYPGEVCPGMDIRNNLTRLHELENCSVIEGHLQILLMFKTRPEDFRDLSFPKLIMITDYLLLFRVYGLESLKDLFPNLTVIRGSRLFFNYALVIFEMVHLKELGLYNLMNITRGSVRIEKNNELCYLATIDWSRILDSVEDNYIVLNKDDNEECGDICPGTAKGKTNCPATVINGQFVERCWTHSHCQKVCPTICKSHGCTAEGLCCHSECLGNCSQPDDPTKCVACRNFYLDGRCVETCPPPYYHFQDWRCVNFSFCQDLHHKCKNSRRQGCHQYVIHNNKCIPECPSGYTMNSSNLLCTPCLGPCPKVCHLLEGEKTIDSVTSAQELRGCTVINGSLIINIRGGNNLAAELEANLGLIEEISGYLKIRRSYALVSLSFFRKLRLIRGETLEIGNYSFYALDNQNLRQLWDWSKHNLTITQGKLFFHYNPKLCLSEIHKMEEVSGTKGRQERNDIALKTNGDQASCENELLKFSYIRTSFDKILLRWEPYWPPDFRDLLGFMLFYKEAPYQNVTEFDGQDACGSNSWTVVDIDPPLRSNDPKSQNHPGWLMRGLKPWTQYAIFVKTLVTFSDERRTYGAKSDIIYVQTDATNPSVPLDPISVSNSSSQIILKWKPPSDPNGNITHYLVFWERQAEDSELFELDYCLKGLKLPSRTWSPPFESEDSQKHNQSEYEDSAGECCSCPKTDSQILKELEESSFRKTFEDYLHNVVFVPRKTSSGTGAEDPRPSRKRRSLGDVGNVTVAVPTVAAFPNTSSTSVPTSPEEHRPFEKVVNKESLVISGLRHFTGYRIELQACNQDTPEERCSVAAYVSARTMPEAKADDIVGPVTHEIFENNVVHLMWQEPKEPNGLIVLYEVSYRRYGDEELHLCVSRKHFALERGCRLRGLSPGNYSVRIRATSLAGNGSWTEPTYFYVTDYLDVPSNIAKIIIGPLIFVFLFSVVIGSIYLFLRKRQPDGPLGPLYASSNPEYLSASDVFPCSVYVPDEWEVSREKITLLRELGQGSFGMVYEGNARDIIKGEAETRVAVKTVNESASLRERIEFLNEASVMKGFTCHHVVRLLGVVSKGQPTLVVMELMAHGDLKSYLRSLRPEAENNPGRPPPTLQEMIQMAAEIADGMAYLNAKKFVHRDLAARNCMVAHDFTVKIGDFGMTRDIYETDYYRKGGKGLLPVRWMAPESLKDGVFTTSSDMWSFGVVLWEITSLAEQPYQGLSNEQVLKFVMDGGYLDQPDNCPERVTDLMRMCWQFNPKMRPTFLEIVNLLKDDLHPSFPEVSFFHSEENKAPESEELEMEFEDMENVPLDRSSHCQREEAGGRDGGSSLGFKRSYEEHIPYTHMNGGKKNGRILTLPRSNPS
Compound,inhibition of phosphorylation of the insulin receptor (insulin receptor),inhibition of tyrosine phosphorylation of the PDGF receptor (PDGF receptor),inhibition of the kinase activity of the EGF receptor (EGF receptor),IC50 (ERK1 and ERK2) [µM],"enhancement of BMP2 induction of mesodermal and cardiac genes (HUES-1 cells; 48 hrs, 10 ng/ml BMP2 with 1 μM SU5402 versus BMP2 alone)","enhancement of BMP2 instructive action (HUES-1 cells; defined (KOSR) medium, SU5402 added to BMP2)",IC50 [1] [µM],fate of CD15+ cells (CD15+ cells)
"Cc1c[nH]c(C=C2C(=O)Nc3ccccc32)c1CCC(=O)O [SU5402, 3-[3-(2-Carboxyethyl)-4-methylpyrrol-2-methylidenyl]-2-indolinone]",does not inhibit,only a weak inhibitor,does not inhibit,10 to 20,3-10 folds,dramatically enhanced,10 to 20,
PDGF,,,,,,,,smooth muscle cells
VEGF,,,,,,,,endothelial

# Reference: patent US8361796B2, “Method for generating primate cardiovascular progenitor cells for clinical use from primate embryonic stem cells or embryonic-like state cells, and their applications” (Assistance Publique—Hopitaux de Paris, priority 2008, dated 2013)
